Results published in ChEMBL document CHEMBL1201862, “PubChem BioAssay data set” (2004).
The source made the active and inactive calls.

Tests used:
[1] = non-specific 3'UTR reporter inhibition in Clone20-Shn3RL – cell-based, Renilla luciferase, cherry-picked, counter-screen for Shn3 inhibitor project, dose response (AID 624133); format: functional
[2] = loss of viability in HepG2 cells – cell-based, CellTiter-Glo, cherry-picked, cytotoxicity control for Shn3 inhibitor project, dose response (AID 624134); format: functional
[3] = reduction of Shn3 3'UTR-driven luciferase in osteoblasts – cell-based, Clone20 osteoblasts, firefly luciferase, cherry-picked, dose response (AID 624132); format: functional;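 further: firefly luciferase luminescence from reporter carrying the Shn3 3'UTR in osteoblasts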
cells [4] = format: functional, cell-based
cells [5] = format: functional, cell-based; remark: listed apart in the source
Protein RecA = biological target: T1, Protein RecA (Mycobacterium tuberculosis, UniProt P9WHJ3); assay: Fluorescence Cell-Free Homogeneous Dose Retest to Identify Inhibitors of RecA-Intein Splicing Activity. [Related pubchem assays (depositor defined):AID2097, AID2223, AID489010, AID492950]; format: functional
T1 sequence (P9WHJ3 whole entry): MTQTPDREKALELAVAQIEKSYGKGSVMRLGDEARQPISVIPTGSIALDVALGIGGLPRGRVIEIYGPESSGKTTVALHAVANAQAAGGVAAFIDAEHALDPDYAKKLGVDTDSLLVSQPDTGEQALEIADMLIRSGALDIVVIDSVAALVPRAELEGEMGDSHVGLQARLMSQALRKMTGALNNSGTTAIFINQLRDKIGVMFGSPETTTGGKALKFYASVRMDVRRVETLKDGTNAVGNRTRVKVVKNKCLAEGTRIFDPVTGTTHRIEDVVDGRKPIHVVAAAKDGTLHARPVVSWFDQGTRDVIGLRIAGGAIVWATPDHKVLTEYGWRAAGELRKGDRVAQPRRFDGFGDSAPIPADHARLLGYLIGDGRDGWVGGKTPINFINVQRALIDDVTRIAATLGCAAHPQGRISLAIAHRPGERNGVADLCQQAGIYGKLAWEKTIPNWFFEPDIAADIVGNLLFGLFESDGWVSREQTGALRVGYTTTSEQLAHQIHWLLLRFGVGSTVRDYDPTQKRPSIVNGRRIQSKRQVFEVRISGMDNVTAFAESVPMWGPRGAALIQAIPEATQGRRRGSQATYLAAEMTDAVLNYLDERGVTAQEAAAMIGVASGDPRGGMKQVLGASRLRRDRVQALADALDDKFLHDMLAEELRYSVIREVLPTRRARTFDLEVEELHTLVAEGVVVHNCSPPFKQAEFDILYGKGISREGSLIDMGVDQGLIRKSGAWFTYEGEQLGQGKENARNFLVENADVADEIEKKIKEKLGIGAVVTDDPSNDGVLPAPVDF

[6] = biological target: T2, Replicative DNA helicase DnaB (Mycobacterium tuberculosis, UniProt P9WMR3); assay: DnaB intein splicing inhibitors, dose response, biochemical, cell-free fluorescence (AID 449749); format: functional
T2 sequence (P9WMR3 whole entry): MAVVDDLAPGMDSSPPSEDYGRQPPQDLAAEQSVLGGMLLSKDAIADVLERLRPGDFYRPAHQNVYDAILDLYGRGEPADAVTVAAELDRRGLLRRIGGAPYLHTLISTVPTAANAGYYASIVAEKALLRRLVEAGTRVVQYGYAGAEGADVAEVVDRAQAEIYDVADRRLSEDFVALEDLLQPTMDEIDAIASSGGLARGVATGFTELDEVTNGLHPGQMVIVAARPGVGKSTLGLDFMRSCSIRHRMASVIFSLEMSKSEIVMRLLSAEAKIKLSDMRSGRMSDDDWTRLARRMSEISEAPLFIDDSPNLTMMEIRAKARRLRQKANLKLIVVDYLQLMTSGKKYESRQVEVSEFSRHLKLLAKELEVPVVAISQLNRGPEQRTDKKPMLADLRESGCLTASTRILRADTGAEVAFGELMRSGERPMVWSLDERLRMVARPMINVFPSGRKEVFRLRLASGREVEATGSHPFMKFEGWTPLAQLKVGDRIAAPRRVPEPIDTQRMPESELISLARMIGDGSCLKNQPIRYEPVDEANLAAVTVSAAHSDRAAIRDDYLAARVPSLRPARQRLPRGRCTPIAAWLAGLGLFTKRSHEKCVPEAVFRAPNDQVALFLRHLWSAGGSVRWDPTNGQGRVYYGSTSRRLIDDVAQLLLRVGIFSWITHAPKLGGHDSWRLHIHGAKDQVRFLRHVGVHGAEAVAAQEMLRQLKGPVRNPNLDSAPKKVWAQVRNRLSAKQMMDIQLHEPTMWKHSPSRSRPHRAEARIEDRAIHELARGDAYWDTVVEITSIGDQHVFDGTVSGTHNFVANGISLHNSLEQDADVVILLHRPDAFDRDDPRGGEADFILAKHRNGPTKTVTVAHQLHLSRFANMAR

Cytochrome P450 2D6 = Cytochrome P450 2D6 (Homo sapiens, UniProt P10635);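 further: CYP2D6 member of a cytochrome P450 panel assay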
Sequence of Cytochrome P450 2D6 (P10635 whole entry): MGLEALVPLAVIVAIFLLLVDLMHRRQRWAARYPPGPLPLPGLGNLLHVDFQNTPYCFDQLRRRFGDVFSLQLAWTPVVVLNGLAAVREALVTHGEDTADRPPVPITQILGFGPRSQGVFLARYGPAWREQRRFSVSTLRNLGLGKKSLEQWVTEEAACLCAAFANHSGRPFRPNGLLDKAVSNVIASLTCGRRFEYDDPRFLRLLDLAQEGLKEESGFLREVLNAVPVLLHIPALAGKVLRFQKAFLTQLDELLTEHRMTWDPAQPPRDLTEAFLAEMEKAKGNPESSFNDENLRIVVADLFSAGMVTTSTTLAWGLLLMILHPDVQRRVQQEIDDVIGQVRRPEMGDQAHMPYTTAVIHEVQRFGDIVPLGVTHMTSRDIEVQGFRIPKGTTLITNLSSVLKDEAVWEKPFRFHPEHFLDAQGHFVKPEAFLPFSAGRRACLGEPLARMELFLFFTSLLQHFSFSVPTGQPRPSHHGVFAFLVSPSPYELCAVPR

Cytochrome P450 1A2 = biological target: T3, Cytochrome P450 1A2 (Homo sapiens, UniProt P05177);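 further: PubChem cytochrome P450 panel assay, CYP1A2 panel member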
T3 sequence (P05177 whole entry): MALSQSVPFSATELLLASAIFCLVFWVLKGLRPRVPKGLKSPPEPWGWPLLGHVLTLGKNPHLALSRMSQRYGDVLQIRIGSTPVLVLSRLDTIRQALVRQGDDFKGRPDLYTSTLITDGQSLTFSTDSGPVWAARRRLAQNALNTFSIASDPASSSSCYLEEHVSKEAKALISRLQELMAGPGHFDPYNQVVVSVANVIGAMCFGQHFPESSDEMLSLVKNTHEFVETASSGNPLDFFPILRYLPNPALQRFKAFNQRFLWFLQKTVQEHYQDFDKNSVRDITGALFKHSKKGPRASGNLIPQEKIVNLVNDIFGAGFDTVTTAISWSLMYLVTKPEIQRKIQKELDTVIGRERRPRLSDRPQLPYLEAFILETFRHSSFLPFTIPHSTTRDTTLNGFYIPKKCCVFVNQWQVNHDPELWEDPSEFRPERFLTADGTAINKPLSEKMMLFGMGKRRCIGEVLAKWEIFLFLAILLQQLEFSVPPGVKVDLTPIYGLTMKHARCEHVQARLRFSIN

Cytochrome P450 2C19 = Cytochrome P450 2C19 (Homo sapiens, UniProt P33261); assay: Cytochrome panel assay with activity outcomes. Panel member name: p450-cyp2c19 Compounds with AC50 equal or less than 10 uM are considered active; format: functional
Sequence of Cytochrome P450 2C19 (P33261 whole entry): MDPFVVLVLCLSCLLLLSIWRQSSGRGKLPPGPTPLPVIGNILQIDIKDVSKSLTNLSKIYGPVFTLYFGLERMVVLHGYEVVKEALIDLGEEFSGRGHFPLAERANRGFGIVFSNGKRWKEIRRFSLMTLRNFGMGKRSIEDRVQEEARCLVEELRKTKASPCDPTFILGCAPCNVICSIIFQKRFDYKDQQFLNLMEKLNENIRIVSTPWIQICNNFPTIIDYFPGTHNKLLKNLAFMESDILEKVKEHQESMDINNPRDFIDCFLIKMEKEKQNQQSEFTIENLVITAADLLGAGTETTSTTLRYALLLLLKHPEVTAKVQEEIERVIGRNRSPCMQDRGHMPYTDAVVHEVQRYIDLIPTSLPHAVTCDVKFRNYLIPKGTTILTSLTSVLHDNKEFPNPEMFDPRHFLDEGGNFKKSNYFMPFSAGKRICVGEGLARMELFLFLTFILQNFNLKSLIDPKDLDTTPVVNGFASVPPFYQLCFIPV

Cytochrome P450 3A4 = Cytochrome P450 3A4 (Homo sapiens, UniProt P08684);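 further: CYP3A4 tested as one member of a cytochrome P450 panel screen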
Sequence of Cytochrome P450 3A4 (P08684 whole entry): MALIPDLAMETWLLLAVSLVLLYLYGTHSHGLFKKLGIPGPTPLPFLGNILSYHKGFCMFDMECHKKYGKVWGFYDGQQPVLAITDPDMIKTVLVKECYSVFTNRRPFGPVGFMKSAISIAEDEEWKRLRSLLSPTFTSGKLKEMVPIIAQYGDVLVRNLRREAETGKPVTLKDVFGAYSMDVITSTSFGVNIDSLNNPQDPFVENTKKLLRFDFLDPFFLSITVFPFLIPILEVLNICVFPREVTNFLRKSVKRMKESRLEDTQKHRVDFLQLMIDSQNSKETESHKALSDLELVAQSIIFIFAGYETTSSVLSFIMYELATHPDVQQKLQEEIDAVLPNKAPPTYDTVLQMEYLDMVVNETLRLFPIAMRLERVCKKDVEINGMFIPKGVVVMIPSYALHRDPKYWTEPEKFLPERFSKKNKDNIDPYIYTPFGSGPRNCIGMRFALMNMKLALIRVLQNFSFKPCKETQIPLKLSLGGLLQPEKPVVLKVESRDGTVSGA

H4 = assay: Luminescence Cell-Based Dose Response HTS to Identify Activators of 5'UTR Stem-Loop Driven Prion Protein mRNA Translation in H4 Neuroglioblastoma Cells. [Related pubchem assays: 1829 (Project Summary), 1814 (Primary HTS)]; format: functional; conditions: Homo sapiens
[7] = Luminescence Cell-Based Dose Response HTS to Identify Activators of Luciferase Translation or Activity in H4 […] Cells. [Related pubchem assays: 1829 (Project Summary), 1814 (Primary HTS)]; format: functional
[8] = Luminescence Cell-Based Dose Confirmation HTS to Identify Activators of 5'UTR Stem-Loop Driven Alpha-Synuclein mRNA Translation in H4 Neuroglioblastoma Cells. [Related pubchem assays: 1829 (Project Summary), 1814 (Primary HTS)]; format: functional
[9] = biological target: Luciferin 4-monooxygenase (Photinus pyralis, UniProt P08659); assay: inhibition of purified Photinus pyralis luciferase – biochemical, luminescence, dose response (AID 1891)
Sequence of Luciferin 4-monooxygenase (P08659 whole entry): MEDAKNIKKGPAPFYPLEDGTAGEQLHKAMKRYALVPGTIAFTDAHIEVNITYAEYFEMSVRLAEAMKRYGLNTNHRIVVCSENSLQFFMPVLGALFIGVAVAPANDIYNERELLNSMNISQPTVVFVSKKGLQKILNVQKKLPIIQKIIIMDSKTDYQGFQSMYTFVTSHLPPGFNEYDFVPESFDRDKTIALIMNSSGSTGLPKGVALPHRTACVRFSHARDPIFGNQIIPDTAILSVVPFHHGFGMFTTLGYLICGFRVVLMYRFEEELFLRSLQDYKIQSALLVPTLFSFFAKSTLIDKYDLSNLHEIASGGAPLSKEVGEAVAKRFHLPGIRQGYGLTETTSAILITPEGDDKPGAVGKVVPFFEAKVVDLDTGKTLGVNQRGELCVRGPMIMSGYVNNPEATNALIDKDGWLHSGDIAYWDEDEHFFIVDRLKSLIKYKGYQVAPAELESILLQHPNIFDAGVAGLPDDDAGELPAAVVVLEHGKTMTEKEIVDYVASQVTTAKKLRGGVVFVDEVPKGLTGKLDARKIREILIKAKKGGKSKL

[10] = Luminescence Cell-Based Dose Confirmation HTS to Identify Inhibitors of Platelet Dense Granule Release. [Related pubchem assays: 1663 (Primary HTS), 1678 (Summary of Project)]; format: functional
[11] = NIH3T3 cell viability loss – ATP luminescence, mouse fibroblasts, counter-screen, dose response (AID 2010); format: functional, cell-based;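 further: cells exposed to compound for about 90 hours before reading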
[12] = Trypanosoma cruzi growth suppression in host cells – NIH3T3 host cells, beta-gal luminescence, confirmation (AID 2044); format: functional, cell-based;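 further: intracellular parasites grown in NIH/3T3 mouse fibroblasts as host cells; luminescent beta-galactosidase reporter signal from transgenic T. cruzi replicating inside host cells; inhibitors lower the luminescence signal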

Compound: C=CCN(c1ccccc1)S(=O)(=O)c1cccc(C(=O)Nc2nc3ccccc3[nH]2)c1
- AC50 [1]: 27.8 µM (active)
- AC50 [2]: 49.7 µM (active)
- AC50 [3]: 10.1 µM (active)

Compound: O=C(N/N=C/c1ccccn1)c1ccc(Br)cc1
- EC50 (cells [4]): > 350 µM (not active)
- EC50 (cells [5]): 15.2 µM (active)

Compound: COc1ccc(/C=C2/C(=O)N(c3ccccc3)N=C2C)cc1
- EC50 (Protein RecA): 1.7 µM (active)
- AC50 [6]: 4.44 µM (active)

Compound: O=C1Oc2ccccc2C(=O)/C1=C\N1C(=O)N/C(=C\c2ccccc2O)C1=O
- AC50 (Cytochrome P450 2D6): 3.98 µM (inconclusive)
- AC50 (Cytochrome P450 1A2): 316 nM (inconclusive)
- AC50 (Cytochrome P450 2C19; read-out: AC50): 6.31 µM (inconclusive)
- AC50 (Cytochrome P450 3A4): 3.98 µM (inconclusive)

Compound: Cc1ccc(-n2nc(C)c3c2OC(N)=C(C#N)C3c2cccs2)cc1 (centres undefined)
- EC50 (H4): > 120 µM (not active)
- EC50 [7]: 33 µM (active)
- EC50 [8]: > 120 µM (not active)
- AC50 [6]: 3.81 µM (active)

Compound: CN(C(=O)c1cc(S(=O)(=O)N2CCc3ccccc32)cn1C)C1CCCCC1
- EC50 [9]: > 112 µM (not active)
- EC50 [10]: > 112 µM (not active)

Compound: O=C1CSCN1c1ccc(Cl)cc1
- EC50 (cells [4]): > 350 µM (not active)
- EC50 (cells [5]): > 350 µM (not active)

Compound: Cc1ccc(CS(=O)(=O)CCC(=O)NCCN2CCCC2)cc1
- AC50 (Cytochrome P450 2D6): 0.1 µM (inconclusive)
- AC50 (Cytochrome P450 2C19; read-out: AC50): 39.8 µM (inconclusive)
- AC50 (Cytochrome P450 3A4): 25.1 µM (inconclusive)

Compound: NCCCN1CCN(c2ccccc2)CC1
- AC50 (Cytochrome P450 2D6): 3.16 µM (inconclusive)

Compound: NC(=O)CC(NC(=O)c1ccc(Br)cc1)c1ccc(N2CCC(Br)CC2)c([N+](=O)[O-])c1 (centres undefined)
- AC50 [1]: 17.5 µM (active)
- AC50 [2]: 62.8 µM (active)
- AC50 [3]: 4.19 µM (active)

Compound: N=C(N)SCc1cn(-c2ccccc2)nc1-c1ccc(Br)cc1
- EC50 [11]: 11.2 µM (active)
- EC50 (Protein RecA): 11 µM (active)
- AC50 [6]: 8.68 µM (active)
- EC50 [12]: 1.03 µM (active)

Compound: Cc1cccc(CNc2cc(-c3ccccc3CN(C)C)ncn2)c1
- AC50 (Cytochrome P450 2D6): 20 µM (inconclusive)
- AC50 (Cytochrome P450 2C19): inconclusive

Compound: COc1cc(C2(c3ccc(O)c(OC)c3)C(=O)Nc3c(C)cc(Br)cc32)ccc1O
- EC50 (Protein RecA): 14.4 µM (active)
- AC50 [6]: 5.77 µM (active)

Compound: CCCS(=O)(=O)N1CCCC(C(=O)NCCCN2CCN(c3ccc(F)cc3)CC2)C1 (centres undefined)
- AC50 (Cytochrome P450 2D6): 5.01 µM (inconclusive)

Compound: Cc1cnc(C)c(N2CCN(Cc3nc(-c4ccccc4)no3)CC2)n1
- EC50 [9]: > 112 µM (not active)
- EC50 [10]: > 112 µM (not active)

Compound: FC(F)(F)c1ccccc1-c1nccc(NCCN2CCOCC2)n1
- AC50 (Cytochrome P450 2D6): 12.6 µM (inconclusive)
- AC50 (Cytochrome P450 2C19; read-out: AC50): 6.31 µM (inconclusive)
